Values after ≈ are worked out from the molar mass of the structure shown. “Also recorded” adds a separate entry of the source.
Columns and labels:
[1] = Aqueous solubility (MultiScreen Solubility Filter Plate, shake-flask based); conditions: aqueous buffer with 5% DMSO, pH 7.4, aqueous with cosolvent or surfactant or cyclodextrin, kinetic from dmso stock
Protocol: Aqueous solubility of Compounds of the Invention was measured with a modified version of the MultiScreen Solubility Filter Plate protocol (Millipore). This assay was based on the shake-flask equilibrium method and utilizes UV-Vis spectroscopy to quantify the unknown samples. The assay was conducted at room temperature at pH 7.4. […] Compound of the Invention was dissolved in DMSO, and the final DMSO concentration was 5% (v/v). Each sample was analyzed by UV-Vis spectroscopy at 10 nm increments from 260-600 nm to determine the optimal wavelength for detection and construct standard curves. […] A 4:1 mixture of supernatant to acetonitrile was added to a 96-well acrylic plate and analyzed by UV-Vis spectroscopy.
Aqueous solubility was measured with a modified version of the MultiScreen Solubility Filter Plate protocol (Millipore). This assay is based on the shake-flask equilibrium method and utilizes UV-Vis spectroscopy to quantify the unknown samples. The assay is conducted at room temperature at pH 7.4. […] Each compound was dissolved in DMSO, and the final DMSO concentration was 5% (v/v). Each sample was analyzed by UV-Vis spectroscopy at 10 nm increments from 260-600 nm to determine the optimal wavelength for detection and construct standard curves. […] A 4:1 mixture of supernatant to acetonitrile was added to a 96-well acrylic plate and analyzed by UV-Vis spectroscopy.

pStat3^Tyr705 = test: Immunoblotting of phosphorylated Stat3 in cancer cells; type: cell-based, human
Protocol: (§1) Whole cell lysates were prepared by incubation of harvested, trypsinised cells with CelLytic™ lysis buffer (Sigma-Aldrich) supplemented with 1× protease and 1× phosphatase inhibitors (Roche). Protein quantification was carried out using a protein assay kit (Bio-Rad). 40 μg of the lysates were denatured by heating for 5 min at 95° C. in sample buffer containing 100 mM Tris-Cl (pH 6.8), 4% SDS, 10% 2-mercaptoethanol, 20% glycerol, and 0.02% bromophenol blue. Precision Plus Protein Dual colour standards (Bio-Rad) were used as a molecular weight reference. For the detection of STAT3, pSTAT3, α/β tubulin, cleaved PARP, Bcl-2, Bcl-xL, FANCD2, BRCA1, EME1 and MUS81, proteins were separated on a NuPAGE 7% Tris-acetate gel (Life Technologies) and subsequently transferred to polyvinylidene difluoride membranes (Immobilon®-P transfer membrane; Millipore). […] Membranes were blocked for 1 h at ambient temperature in a blocking buffer containing 5% w/v Bovine Serum Albumin (BSA; Sigma-Aldrich) in 1×TBS, 0.1% Tween-20. All proteins were identified by incubation in a 1:1000 dilution of the respective polyclonal antibodies (Cell signaling) in blocking buffer overnight at 4° C. and subsequent incubation for 1 h with an anti-rabbit or anti-mouse secondary antibody (Cell signalling) at a dilution of 1:1000. The α/β tubulin (1:2000; Cell Signaling) and the anti-phospho-histone H2AX Antibody (1:500; Millipore) were used in the denoted dilutions. Antibody binding was visualized by enhanced chemiluminescence (Amersham) on autoradiography film (Kodak-X-Omat). Alternatively Images were captured by the GelDoc-It Imaging System Fusion Fx7 (Vilber Lourmat, Germany).
as §1, with “Immunoblotting. Whole” for “Whole”, “CelLytic™ M” for “CelLytic™”, “pSTAT3, a/0” for “pSTAT3, α/β”, “in 1×TBS” for “in 1×TBS,”, “(Cell signalling)” for “(Cell signaling)”

[2] = tested on: HCT116-oxaliplatin resistant cells; test: MTT growth inhibition and Chou-Talalay combination index with oxaliplatin; type: cell-based; set-up: key to Effect: affected fraction (Fa) from MTT absorbance, 0-1
Protocol: The software Calcusyn was utilized for analysis of drug interactions using the Chou-Talalay combination index method (Chou, T.-C. Drug Combination Studies and Their Synergy Quantification Using the Chou-Talalay Method. [Cancer Res. 70, 440-446 (2010)]
The affected fractions were calculated from the SRB or MTT assay absorbance values and were registered to derive the respective CI values and isobolograms. A CI value of less than 1 (one) indicates synergy.
MIT assay. Individual drug treatments and combinations were carried out as with the SRB assay. The MTT assay was carried out as previously (see Cytotoxicity studies sections) with the difference that it was completed in 96 h.

[3] = target: Stat3 binding to hSIE DNA probe (Homo sapiens, UniProt P40763); test: Electrophoretic mobility shift assay (EMSA); conditions: DU145 nuclear extracts
Chain of Stat3 binding to hSIE DNA probe (P40763 whole entry): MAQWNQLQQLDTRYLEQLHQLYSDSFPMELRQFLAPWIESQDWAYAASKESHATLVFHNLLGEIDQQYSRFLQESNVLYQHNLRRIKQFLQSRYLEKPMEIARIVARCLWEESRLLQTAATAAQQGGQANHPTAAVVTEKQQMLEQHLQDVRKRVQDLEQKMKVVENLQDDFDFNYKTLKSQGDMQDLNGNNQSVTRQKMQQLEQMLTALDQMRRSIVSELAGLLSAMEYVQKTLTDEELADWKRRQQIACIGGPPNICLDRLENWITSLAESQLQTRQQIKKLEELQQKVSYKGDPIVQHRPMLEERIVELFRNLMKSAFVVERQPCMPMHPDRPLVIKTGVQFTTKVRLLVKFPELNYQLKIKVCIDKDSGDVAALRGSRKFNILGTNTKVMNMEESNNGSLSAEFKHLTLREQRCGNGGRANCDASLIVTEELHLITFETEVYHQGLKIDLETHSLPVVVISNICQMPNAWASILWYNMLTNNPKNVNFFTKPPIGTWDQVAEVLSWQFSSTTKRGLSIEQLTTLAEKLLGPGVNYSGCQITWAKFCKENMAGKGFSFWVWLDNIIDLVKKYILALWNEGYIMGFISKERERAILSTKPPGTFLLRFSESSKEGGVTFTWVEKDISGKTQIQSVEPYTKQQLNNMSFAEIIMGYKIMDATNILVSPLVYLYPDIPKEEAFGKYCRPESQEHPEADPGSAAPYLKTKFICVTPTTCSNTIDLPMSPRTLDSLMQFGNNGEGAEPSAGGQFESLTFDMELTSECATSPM
Protocol: Binding reactions contained 0.9 μg poly(dI-dC). Competition assays were performed by adding 100× excess cold SIE oligonucleotide (lane C) and non-specific competitor (lane M: FIRE; 5′-[sequence]-3′). The DNA-protein complexes were subjected to electrophoresis and resolved on a 5% non-denaturing polyacrylamide gel (30% acrylamide/Bis solution, Bio-Rad) in 0.5% TBE buffer containing 2.5% glycerol (pH 7.8) at 4° C. for 2 h. Once dried, the radioactive signal of the gel was visualized by exposure to Fuji medical X-ray film.
Binding reactions contained 0.9 μg poly(dI-dC). Competition assays were performed by adding 100× excess cold SIE oligonucleotide (lane C) and non-specific competitor (lane M; FIRE; 5′-[sequence]-3′). The DNA-protein complexes were subjected to electrophoresis and resolved on a 5% non-denaturing polyacrylamide gel (30% acrylamide/Bis solution, Bio-Rad) in 0.5% TBE buffer containing 2.5% glycerol (pH 7.8) at 4° C. for 2 h. Once dried, the radioactive signal of the gel was visualized by exposure to Fuji medical X-ray film.

B16 (melanoma) cells = test: MTT cytotoxicity assay, B16 cells; conditions: Mus musculus, B16, 72 h, read-out: IC50 (μM) B16, 72 h exposure, MTT, mean of three independent experiments
L1210 (lymphoma) cells = test: MTT cytotoxicity assay, L1210 cells; conditions: Mus musculus, L1210, 72 h, read-out: IC50 (μM) L1210, 72 h exposure, MTT, mean of three independent experiments
[4] = IE-8 2.0 μM 1 h, then oxaliplatin 0.1 μM 96 h
[5] = IE-8 2.0 μM 1 h, then oxaliplatin 1.0 μM 96 h
[6] = IE-8 2.0 μM 1 h, then oxaliplatin 10.0 μM 96 h
[7] = IE-8 2.0 μM 1 h, then oxaliplatin 20.0 μM 96 h
[8] = IE-8 2.0 μM 1 h, then oxaliplatin 40.0 μM 96 h
[9] = IE-8 2.0 μM 1 h, then oxaliplatin 60.0 μM 96 h
[10] = IE-8 2.0 μM 1 h, then oxaliplatin 80.0 μM 96 h
[11] = IE-8 2.0 μM 1 h, then oxaliplatin 100.0 μM 96 h
[12] = IE-8 2.0 μM 1 h, then oxaliplatin 200.0 μM 96 h
[13] = IE-8 2.5 μM 1 h, then oxaliplatin 0.1 μM 96 h
[14] = IE-8 2.5 μM 1 h, then oxaliplatin 1.0 μM 96 h
[15] = IE-8 2.5 μM 1 h, then oxaliplatin 10.0 μM 96 h
[16] = IE-8 2.5 μM 1 h, then oxaliplatin 20.0 μM 96 h
[17] = IE-8 2.5 μM 1 h, then oxaliplatin 40.0 μM 96 h
[18] = IE-8 2.5 μM 1 h, then oxaliplatin 60.0 μM 96 h
[19] = IE-8 2.5 μM 1 h, then oxaliplatin 80.0 μM 96 h
[20] = IE-8 2.5 μM 1 h, then oxaliplatin 100.0 μM 96 h
[21] = IE-8 2.5 μM 1 h, then oxaliplatin 200.0 μM 96 h
[22] = IE-8 3.0 μM 1 h, then oxaliplatin 0.1 μM 96 h
[23] = IE-8 3.0 μM 1 h, then oxaliplatin 1.0 μM 96 h
[24] = IE-8 3.0 μM 1 h, then oxaliplatin 10.0 μM 96 h
[25] = IE-8 3.0 μM 1 h, then oxaliplatin 20.0 μM 96 h
[26] = IE-8 3.0 μM 1 h, then oxaliplatin 40.0 μM 96 h
[27] = IE-8 3.0 μM 1 h, then oxaliplatin 60.0 μM 96 h
[28] = IE-8 3.0 μM 1 h, then oxaliplatin 80.0 μM 96 h
[29] = IE-8 3.0 μM 1 h, then oxaliplatin 100.0 μM 96 h
[30] = IE-8 3.0 μM 1 h, then oxaliplatin 200.0 μM 96 h
[31] = oxaliplatin 1.0 μM 1 h, 3 h later IE-8 1.0 μM until 96 h
[32] = oxaliplatin 10.0 μM 1 h, 3 h later IE-8 1.0 μM until 96 h
[33] = oxaliplatin 20.0 μM 1 h, 3 h later IE-8 1.0 μM until 96 h
[34] = oxaliplatin 40.0 μM 1 h, 3 h later IE-8 1.0 μM until 96 h
[35] = oxaliplatin 60.0 μM 1 h, 3 h later IE-8 1.0 μM until 96 h
[36] = oxaliplatin 80.0 μM 1 h, 3 h later IE-8 1.0 μM until 96 h
[37] = oxaliplatin 200.0 μM 1 h, 3 h later IE-8 1.0 μM until 96 h
[38] = oxaliplatin 400.0 μM 1 h, 3 h later IE-8 1.0 μM until 96 h

## COc1cc(/C=C2\CN(c3ccccc3)C/C(=C\c3cc(OC)c(OC)c(OC)c3)C2=O)cc(OC)c1OC [IE-8, 3,5-Di(3,4,5-trimethoxybenzylidene)-1-phenylpiperidin-4-one]
[1]
  solubility at 6 h: 200 ± 30 µM (≈ 106 µg/mL)
pStat3^Tyr705; A2780-cisplatin resistant cells, 18 h
  inhibition of IL-6 induced pStat3: the most potent inhibitor in this series; also recorded: efficiently inhibited
pStat3^Tyr705; DU145, 5 μM, 1 h
  pStat3 inhibition after acute treatment: sufficient to inhibit pStat3
pStat3^Tyr705; DU145 and A549, after 18 h treatment and drug removal
  persistence of pStat3 inhibition post treatment: at least 24 h
pStat3^Tyr705; DU145 and A549 cells with constitutively active Stat3, 18 h
  inhibition of Stat3 tyrosine (705) phosphorylation (pStat3): inhibits pStat3^Tyr705 levels without affecting the total Stat3 levels; also recorded: efficiently inhibited
pStat3^Tyr705; HCT116-oxaliplatin resistant cells, 18 h
  inhibition of constitutively active Stat3 (pStat3): the most potent among these inhibitors; also recorded: efficiently inhibited the constitutively active Stat3
pStat3^Tyr705; HCT116-oxaliplatin resistant or A2780-cisplatin resistant spheroids
  pStat3 inhibition in 3D spheroids: inhibition of pStat3; also recorded: efficiently inhibited
pStat3^Tyr705; cells with persistent Stat3 activation, 18 h
  concentrations at which pSTAT3 is inhibited: > 1 μM
[2]; [4]
  CI-value: 1.558
  Effect: 0.1065
[2]; [5]
  CI-value: 1.979
  Effect: 0.0954
[2]; [6]
  CI-value: 2.754
  Effect: 0.1575
[2]; [7]
  CI-value: 1.58
  Effect: 0.315
[2]; [8]
  CI-value: 1.172
  Effect: 0.4676
[2]; [9]
  CI-value: 1.135
  Effect: 0.5256
[2]; [10]
  CI-value: 0.827
  Effect: 0.6386
[2]; [11]
  CI-value: 0.7749
  Effect: 0.678
[2]; [12]
  CI-value: 0.4016
  Effect: 0.8582
[2]; [13]
  CI-value: 0.721
  Effect: 0.5165
[2]; [14]
  CI-value: 1.405
  Effect: 0.2143
[2]; [15]
  CI-value: 1.985
  Effect: 0.231
[2]; [16]
  CI-value: 1.805
  Effect: 0.313
[2]; [17]
  CI-value: 0.8326
  Effect: 0.6087
[2]; [18]
  CI-value: 0.8009
  Effect: 0.6559
[2]; [19]
  CI-value: 0.5921
  Effect: 0.76
[2]; [20]
  CI-value: 0.7993
  Effect: 0.7021
[2]; [21]
  CI-value: 0.4777
  Effect: 0.855
[2]; [22]
  CI-value: 0.8489
  Effect: 0.527
[2]; [23]
  CI-value: 1.924
  Effect: 0.171
[2]; [24]
  CI-value: 1.573
  Effect: 0.3259
[2]; [25]
  CI-value: 1.453
  Effect: 0.4064
[2]; [26]
  CI-value: 0.7871
  Effect: 0.6743
[2]; [27]
  CI-value: 0.8214
  Effect: 0.6878
[2]; [28]
  CI-value: 0.5584
  Effect: 0.8108
[2]; [29]
  CI-value: 0.48
  Effect: 0.8527
[2]; [30]
  CI-value: 0.4763
  Effect: 0.877
[2]; fixed and non-fixed ratio combination treatments, in many instances
  CI values in combination with oxaliplatin: < 1
[2]; [31]
  CI-value: 5.476
  Effect: 0.2692
[2]; [32]
  CI-value: 1.482
  Effect: 0.6799
[2]; [33]
  CI-value: 0.9954
  Effect: 0.7838
[2]; [34]
  CI-value: 0.5439
  Effect: 0.8908
[2]; [35]
  CI-value: 0.5183
  Effect: 0.897
[2]; [36]
  CI-value: 0.4279
  Effect: 0.9184
[2]; [37]
  CI-value: 0.3786
  Effect: 0.93
[2]; [38]
  CI-value: 0.488
  Effect: 0.9045
[3]
  concentration blocking Stat3-DNA binding activity: ≥ 0.8 µM
B16 (melanoma) cells
  IC50: 0.3 µM
L1210 (lymphoma) cells
  IC50: 0.36 µM
